Results on 15 compounds are retold here after US20220127580A1, “COMPOSITIONS AND METHODS FOR REPROGRAMING NON-HEPATOCYTE CELLS INTO HEPATOCYTE CELLS” (priority 2019, published 2022).

For series [1], the system named is hiHeps. The series is described as follows: Measurements of hepatic clearance in hiHeps suspension. As for the experimental part:
Briefly, a 1×10^6 cells/ml cell suspension and 2× drug solutions were prepared in incubation medium (William's E medium, 10 mM HEPES [pH 7.4], and 1% GlutaMAX). Reactions were started by adding 500 μl of drug solutions to 500 ul of hiHeps, giving a final substrate concentration of between 1 and 2 μM.
These concentrations were selected to be below the Km for most substrates but to still have sufficient analytical sensitivity. Reactions were performed in an orbital shaker in an incubator at 37° C. Then, 80 μl aliquots were removed at 0, 15, 30, 60, 90, 120, 180 and 240 minutes, and samples were quenched in 240 μl of methanol containing an isotope-labeled reference and frozen at −80° C. The substrates were quantified using the validated traditional LC-MS/MS methods described above. Assays were performed in triplicate.
The slope (−k) of the linear regression from the log [substrate] versus time plot was determined. […] No correction factor was made for any differential in vitro and in vivo binding, and the distribution of the drug between the plasma and blood was assumed to be unity.

For series [2] the following is noted: cited from earlier work.
In the next series the test system is HBV. The series is described as follows: HBV infection of hiHeps, response to anti-HBV compounds. It counts as cell-based.
Series [3] in a line: Toxicity assay in hiHeps (TC50). The following applies: human, hiHeps, 24 hours; values rounded for ease of use. The format is cell-based, human. As for the experimental part: (§1) For the toxicity assay, hiHeps, HepG2 cells and PHHs were cultured in 96-well or 384-well plates. Compounds with 7-8 concentration dilutions were prepared in DMEM with 3% FBS to test HepG2 cells or in HCM to test PHHs and hiHeps. The final DMSO concentration under all conditions was consistent.
(§2) Compounds were tested in bipartite in a dilution series by half-log concentration increments. After the cells were treated with compounds for 24 hours, the supernatant was discarded and modified WEM (William's E medium supplemented with 2% B27 and 1% GlutaMAX) containing fluorescent probes was added to cells. […] After incubation for 30 minutes, the supernatant was discarded and cells were washed twice. Images were acquired using the Operetta High-Content Imaging System (PerkinElmer) with a 10× objective. […] After 1-4 hour chromogenic reaction in the incubator, the absorbance at 450 nm was read using a SpectraMax i3× (Molecular Devices). Image data were analyzed online using the Columbus Image Data Storage and Analysis System (PerkinElmer) with the following steps: (1) identification and counting of nuclei; (2) identification and counting of live cells labeled by CellTrace™ Calcein Red-Orange AM; and (3) identification and counting of live cells labeled by MitoTracker™ Deep Red FM. The viability of each parameter transformed from image data and the CCK-8 assay data were entered into Excel. The cellular viability of each parameter was expressed as the live cell ratio and normalized to the negative control. The TC50 values of these four parameters were calculated separately, and the minimum TC50 value was used as the final TC50.

The next series has as its system CYP1A2. As for the experimental part:
(§3) Vehicle-treated groups were used to determine the basal activity. To measure the induced activity of PHHs, PHHs were cultured and induced under sandwich methods.

In series [4] the test system is hiHeps. The series is described as follows: Toxicity assay in hiHeps (TC50). The format is cell-based, human. As for the experimental part:
as §1, §2

The test system of another series is CYP2B6. As for the experimental part:
as §3

In series [5] the test system is hiHeps.
The next series concerns HepG2 cells. The format is cell-based. The following applies: human. As for the experimental part: For the toxicity assay, hiHeps, HepG2 cells and PHHs were cultured in 96-well or 384-well plates. Compounds with 7-8 concentration dilutions were prepared in DMEM with 3% FBS to test HepG2 cells or in HCM to test PHHs and hiHeps. The final DMSO concentration under all conditions was consistent. The detailed information of the tested compounds is listed in Table 7 ((Seglen, et. Al., Methods in Cell Biology 13, 29-83 (1976)), Zhong et. Al., Clin Chim Acta. 412, 1905-1911 (2011))).
Compounds were tested in bipartite in a dilution series by half-log concentration increments. […] After 1-4 hour chromogenic reaction in the incubator, the absorbance at 450 nm was read using a SpectraMax i3× (Molecular Devices). Image data were analyzed online using the Columbus Image Data Storage and Analysis System (PerkinElmer) with the following steps: (1) identification and counting of nuclei; (2) identification and counting of live cells labeled by CellTrace™ Calcein Red-Orange AM; and (3) identification and counting of live cells labeled by MitoTracker™ Deep Red FM. […] The cellular viability of each parameter was expressed as the live cell ratio and normalized to the negative control. The TC50 values of these four parameters were calculated separately, and the minimum TC50 value was used as the final TC50.

Where [6] appears, read: hiHeps suspension, substrate 1 μM, parent disappearance.
The mark [7] stands for this setting: scaled from hiHeps CLint, well stirred model, human.

Like-named read-outs stand apart in the source and are kept apart here.

Consider `O=C(O)Cc1ccccc1Nc1c(Cl)cccc1Cl` [Diclofenac], for which, in the series with hiHeps [1] (setting [6]), the “In vitro Clint hiHeps by” value amounted to 4.5 μL/min/10^6. Besides, the “Scaled in vivo CLh by hiHeps” value with hiHeps [1] (setting [7]) stood at 7.4 ml/mim/kg. The “Observed CLh in vivo” value in series [2] (in vivo) is recorded as 7.6. `C=C1[C@H](CO)[C@@H](O)C[C@@H]1n1cnc2c(=O)[nH]c(N)nc21` [entecavir]: the “inhibition of HBV-DNA” value with HBV (HBV-infected hiHeps, LAM 1 μM, ETV 0.5 μM, especially during prolonged treatment) is given as “greatly inhibited”.

On to `CO[C@H]1/C=C/O[C@@]2(C)Oc3c(C)c(O)c4c(O)c(c(/C=N/N5CCN(C)CC5)c(O)c4c3C2=O)NC(=O)/C(C)=C\C=C\[C@H](C)[C@H](O)[C@@H](C)[C@@H](O)[C@@H](C)[C@H](OC(C)=O)[C@@H]1C` [rifampin], for which it took 100 µM to reach half-maximal cytotoxicity in series [3] (CC50 at 24 h). On to `CN(C)CCCN1c2ccccc2Sc2ccc(Cl)cc21` [chlorpromazine], for which, in [3], the CC50 (in general, the concentration that lowers cell viability or growth by half) at 24 h was around 25 µM.

For `Cc1c(OCC(F)(F)F)ccnc1C[S+]([O-])c1nc2ccccc2[nH]1` (centres unmarked) [lansoprazole], the “induced activity of CYP1A2” value in the series on CYP1A2 is “could be induced”.

Turning to `Cc1c(C)c2c(c(C)c1O)CCC(C)(COc1ccc(CC3SC(=O)NC3=O)cc1)O2` (centres unmarked) [troglitazone], the “chronic toxicity (cell death)” value in the series with hiHeps [4] is given as “caused extensive cell death”. For the compound `O=c1cc(-c2ccccc2)oc2ccc3ccccc3c12` [β-naphthoflavone], the “induced activity of CYP1A2” value in the series on CYP1A2 is given as “could be induced”.

Take `CCOc1ccc(NC(C)=O)cc1` [Phenacetin]: the “In vitro Clint hiHeps by” value in the series with hiHeps [1] (setting [6]) is on record as 18.3 μL/min/10^6. Further, in the series on hiHeps [1] (setting [7]), the “Scaled in vivo CLh by hiHeps” value came out at 14.1 ml/mim/kg. As to interferon-alpha, the “effect on all major HBV markers” value with HBV (HBV-infected hiHeps, 1000 U/mL after infection) is reported as “inhibitory effect”. Besides, the IFN-stimulated genes expression entry in the series with HBV (hiHeps, 1000 U/mL) is reported as “upregulation”. On to `Cc1ncc2n1-c1ccc(Cl)cc1C(c1ccccc1F)=NC2` [Midazolam], for which, in the series with hiHeps [1] (human, pH 7.4), the “In vitro Clint hiHeps by” value turned out to be 2.8 μL/min/10^6 and the “Scaled in vivo CLh by hiHeps” value was 5.3 ml/mim/kg. Besides, the “Observed CLh in vivo” value in series [2] (observed in vivo, previous reports) was 5.3. As for `CCC1(c2ccccc2)C(=O)NC(=O)NC1=O` [Phenobarbital], the “induced activity of CYP2B6” value with CYP2B6 is “could be induced”. For the compound aflatoxin B1, the “toxicity after induction with rifampin” value in the series on hiHeps [5] is “increased after induction with rifampin”. On to `CC(=O)N1CCN(c2ccc(OCC3COC(Cn4ccnc4)(c4ccc(Cl)cc4Cl)O3)cc2)CC1` (centres unmarked) [ketoconazole], for which the “rescue from rifampin-increased toxicity of AFB1 and flutamide” value in the series on hiHeps [5] is listed as “rescued”. Regarding `CC(C)C(=O)Nc1ccc([N+](=O)[O-])c(C(F)(F)F)c1` [flutamide], in the series on hiHeps [5], the “toxicity after induction with rifampin” value is reported as “increased after induction with rifampin”. Besides, in the series on HepG2 cells, the cell viability (commonly the share of living cells, or the viability signal relative to a control) was determined as 100%. As to `C=CCN1CC[C@]23c4c5ccc(O)c4O[C@H]2C(=O)CC[C@@]3(O)[C@H]1C5` [Naloxone], in the series on hiHeps [1] (setting [6]), the “In vitro Clint hiHeps by” value is on record as 14.2 μL/min/10^6. In addition, the “Scaled in vivo CLh by hiHeps” value with hiHeps [1] (setting [7]) is recorded as 13 ml/mim/kg.
